Test results reported in ChEMBL document CHEMBL4304824, “Austalides V and W, new meroterpenoids from the fungus Aspergillus ustus and their antitumor activities” (Bioorg Med Chem Lett, 2019).
Active and inactive are the calls of the source. The calls are words filed in the database; no cut-off is given here.

Tests used:
T-24 = assay: Cytotoxicity against human T24 cells assessed as reduction in cell viability incubated for 48 hrs by xCELLigence RTCA analysis; assay type: functional, cell-based; details: T-24, 48 h
LNCaP [1] = assay: Inhibition of Akt/mTOR pathway in human LNCAP cells assessed as reduction in AKT3 phosphorylation at S473/T308 residues at 50 uM incubated for 48 hrs by chemiluminescence reagent based autoradiography; assay type: cell-based
LNCaP [2] = assay: Cytotoxicity against human LNCAP cells assessed as reduction in cell viability measured after 25 hrs by xCELLigence RTCA analysis; assay type: functional, cell-based
LNCaP [3] = assay: Inhibition of Akt/mTOR pathway in human LNCAP cells assessed as reduction in AKT2 phosphorylation at S473/T308 residues at 50 uM incubated for 48 hrs by chemiluminescence reagent based autoradiography; assay type: cell-based
DU-145 = assay: Cytotoxicity against human DU145 cells assessed as reduction in cell viability incubated for 48 hrs by xCELLigence RTCA analysis; assay type: functional, cell-based; details: DU-145, 48 h
LNCaP [4] = assay: Inhibition of Akt/mTOR pathway in human LNCAP cells assessed as reduction in mTOR phosphorylation at […] residue at 50 uM incubated for 48 hrs by chemiluminescence reagent based autoradiography; assay type: cell-based
LNCaP [5] = assay: Inhibition of cell migration of human LNCAP cells at 8.8 uM measured every 10 mins for 24 hrs by xCELLigence RTCA analysis; assay type: functional, cell-based
[6] = target: Proto-oncogene tyrosine-protein kinase Src (Homo sapiens) (UniProt P12931); assay: Inhibition of c-Src phosphorylation at Y419 residue in human LNCAP cells at 50 uM incubated for 48 hrs by chemiluminescence reagent based autoradiography; assay type: cell-based
Chain of Proto-oncogene tyrosine-protein kinase Src (Homo sapiens) (P12931 2-536 limits assumed): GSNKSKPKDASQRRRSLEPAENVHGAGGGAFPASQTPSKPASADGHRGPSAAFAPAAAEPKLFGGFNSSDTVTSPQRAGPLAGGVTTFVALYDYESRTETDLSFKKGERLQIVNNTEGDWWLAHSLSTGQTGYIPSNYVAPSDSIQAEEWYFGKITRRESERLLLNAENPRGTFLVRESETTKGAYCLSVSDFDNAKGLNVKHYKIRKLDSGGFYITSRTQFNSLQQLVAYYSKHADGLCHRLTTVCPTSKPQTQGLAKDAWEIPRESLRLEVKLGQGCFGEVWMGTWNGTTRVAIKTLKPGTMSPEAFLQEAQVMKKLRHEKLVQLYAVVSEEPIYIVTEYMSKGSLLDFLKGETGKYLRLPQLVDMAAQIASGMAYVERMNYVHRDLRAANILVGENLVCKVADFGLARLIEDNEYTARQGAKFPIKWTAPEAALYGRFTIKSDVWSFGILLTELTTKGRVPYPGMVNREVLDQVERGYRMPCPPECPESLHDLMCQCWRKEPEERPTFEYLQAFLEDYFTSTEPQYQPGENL

LNCaP [7] = assay: Inhibition of Akt/mTOR pathway in human LNCAP cells assessed as reduction in AKT1 phosphorylation at S473/T308 residues at 50 uM incubated for 48 hrs by chemiluminescence reagent based autoradiography; assay type: cell-based
LNCaP [8] = assay: Cytotoxicity against human LNCAP cells assessed as reduction in cell viability incubated for 48 hrs by xCELLigence RTCA analysis; assay type: functional, cell-based
LNCaP [9] = assay: Inhibition of Akt/mTOR pathway in human LNCAP cells assessed as reduction in p70S6 kinase phosphorylation at T421/S424 residues at 50 uM incubated for 48 hrs by chemiluminescence reagent based autoradiography; assay type: cell-based
LNCaP [10] = assay: Antiproliferation activity against human LNCAP cells assessed as reduction in cell density incubated for 72 hrs by microscopic method; assay type: functional, cell-based
[11] = target: Focal adhesion kinase 1 (Homo sapiens) (UniProt Q05397); assay: Inhibition of FAK phosphorylation at Y397 residue in human LNCAP cells at 50 uM incubated for 48 hrs by chemiluminescence reagent based autoradiography; assay type: cell-based
Chain of Focal adhesion kinase 1 (Homo sapiens) (Q05397 2-1052 limits assumed): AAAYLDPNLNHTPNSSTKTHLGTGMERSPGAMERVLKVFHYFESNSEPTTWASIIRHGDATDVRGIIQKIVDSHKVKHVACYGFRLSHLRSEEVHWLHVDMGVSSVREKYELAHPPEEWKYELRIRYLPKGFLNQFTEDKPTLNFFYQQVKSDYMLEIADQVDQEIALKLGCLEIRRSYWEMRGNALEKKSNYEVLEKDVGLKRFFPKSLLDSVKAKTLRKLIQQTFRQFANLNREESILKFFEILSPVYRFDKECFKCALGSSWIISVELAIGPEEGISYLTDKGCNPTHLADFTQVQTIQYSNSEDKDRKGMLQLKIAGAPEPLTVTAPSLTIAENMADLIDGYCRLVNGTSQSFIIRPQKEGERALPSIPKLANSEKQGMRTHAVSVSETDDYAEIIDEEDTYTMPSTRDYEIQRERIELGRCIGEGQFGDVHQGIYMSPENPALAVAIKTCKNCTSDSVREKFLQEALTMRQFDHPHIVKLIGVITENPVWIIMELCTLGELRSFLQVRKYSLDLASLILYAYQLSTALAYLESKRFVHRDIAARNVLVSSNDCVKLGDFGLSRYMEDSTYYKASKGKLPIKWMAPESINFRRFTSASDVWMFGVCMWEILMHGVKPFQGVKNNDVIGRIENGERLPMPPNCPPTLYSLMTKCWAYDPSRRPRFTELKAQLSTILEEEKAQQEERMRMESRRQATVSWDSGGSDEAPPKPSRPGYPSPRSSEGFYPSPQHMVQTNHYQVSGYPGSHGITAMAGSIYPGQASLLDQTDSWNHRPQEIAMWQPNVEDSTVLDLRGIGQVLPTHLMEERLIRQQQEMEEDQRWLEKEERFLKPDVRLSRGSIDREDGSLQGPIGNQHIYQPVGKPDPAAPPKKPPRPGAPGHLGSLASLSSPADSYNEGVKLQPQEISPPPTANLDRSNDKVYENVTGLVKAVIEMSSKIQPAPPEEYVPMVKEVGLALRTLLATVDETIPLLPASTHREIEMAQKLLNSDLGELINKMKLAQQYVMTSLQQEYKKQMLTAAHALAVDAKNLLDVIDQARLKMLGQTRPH

LNCaP [12] = assay: Inhibition of Akt/mTOR pathway in human LNCAP cells assessed as reduction in PRAS40 phosphorylation at T246 residue at 50 uM incubated for 48 hrs by chemiluminescence reagent based autoradiography; assay type: cell-based
LNCaP [13] = assay: Effect on total HSP60 level in human LNCAP cells at 50 uM incubated for 48 hrs by chemiluminescence reagent based autoradiography; assay type: ADME, cell-based
LNCaP [14] = assay: Cytotoxicity against human LNCAP cells assessed as reduction in cell viability incubated for 12 hrs by xCELLigence RTCA analysis; assay type: functional, cell-based
LNCaP [15] = assay: Inhibition of cell migration of human LNCAP cells at 8.9 uM measured every 10 mins for 24 hrs by xCELLigence RTCA analysis; assay type: functional, cell-based

With COc1c2c(c(C)c3c1C(=O)OC3)O[C@@]1(C)C[C@]3(O)OC[C@]4(C)O[C@@]5(OC)CC[C@](C)([C@H]1C2)[C@]43O5 the IC50 (T-24) was 73 µM, the inhibition (LNCaP [1]) was “Active” and the inhibition (LNCaP [2]) was “Active”. For the same compound, the inhibition (LNCaP [3]) was “Active”, the IC50 (DU-145) was 73 µM and the inhibition (LNCaP [4]) was “Active”. The inhibition (LNCaP [5]) was “Active”, the inhibition [6] was “Active” and the inhibition (LNCaP [7]) was “Active”. The IC50 (LNCaP [8]) was 27 µM, the inhibition (LNCaP [9]) was “Active” and the Activity (LNCaP [10]) was “Active”. The inhibition [11] was “Active”, the inhibition (LNCaP [12]) was “Active” and the Activity (LNCaP [13]) was “Toxic”.
With COc1c2c(c(C)c3c1C(=O)OC3)O[C@@]1(C)C[C@]3(O)OC[C@]4(C)O[C@@]5(OC)C[C@@H](OC(C)=O)[C@](C)([C@H]1C2)[C@]43O5 the IC50 (T-24) was 64 µM, the IC50 (DU-145) was 53 µM and the inhibition (LNCaP [14]) was “Dose-dependent effect”. For the same compound, the IC50 (LNCaP [8]) was 20 µM, the inhibition (LNCaP [15]) was “Active” and the Activity (LNCaP [10]) was “Active”.
